This is an account of results in ChEMBL document CHEMBL3351819, “Clofazimine analogs with antileishmanial and antiplasmodial activity” (Bioorg Med Chem, 2015).

One assay has as its system Leishmania infantum. The assay is described as follows: Antileishmanial activity against Leishmania infantum MHOM/TN/80/IPT1 promastigotes assessed as inhibition of parasite growth after 72 hrs by MTT assay. It is filed as functional, organism-based. Conditions: MHOM/TN/80/IPT1, 72 h. (In general: Tetrazolium dyes change colour on reduction, which living cells bring about.)

The nature of assay [1]: Selectivity index, ratio of IC50 for HMEC1 to IC50 for Leishmania infantum MHOM/TN/80/IPT1.
The subject of the next assay is Leishmania tropica. The assay can be described thus: Antileishmanial activity against Leishmania tropica MHOM/IT/2012/ISS3130 promastigotes assessed as inhibition of parasite growth after 72 hrs by MTT assay. It is filed as functional, organism-based. The following applies: MHOM/IT/2012/ISS3130, 72 h.
Assay [2] is described as follows: Selectivity index, ratio of IC50 for HMEC1 to IC50 for Leishmania tropica MHOM/IT/2012/ISS3130.
The test system of another assay is Leishmania braziliensis. The assay can be described thus: Antileishmanial activity against Leishmania braziliensis MHOM/IT/2006/ISS2848 promastigotes assessed as inhibition of parasite growth after 72 hrs by MTT assay. It is filed as functional, organism-based. The following applies: MHOM/IT/2006/ISS2848, 72 h.
Assay [3] is described as follows: Selectivity index, ratio of IC50 for HMEC1 to IC50 for Leishmania braziliensis MHOM/IT/2006/ISS2848.
Assay [4] is described as follows: Cytotoxicity against HMEC1 cells after 72 hrs by MTT assay. It is filed as cell-based. Conditions: Homo sapiens, HMEC-1, 72 h.
Assay [5] deals with Plasmodium falciparum. The assay can be described thus: Antiplasmodial activity against chloroquine-sensitive Plasmodium falciparum D10 assessed as inhibition of parasite growth after 72 hrs by parasite lactate dehydrogenase assay. The following applies: D10, 72 h. The assay is classed as functional, organism-based.
Assay [6] is described as follows: Selectivity index, ratio of IC50 for HMEC1 to IC50 for chloroquine-sensitive Plasmodium falciparum D10.
Assay [7] relates to Plasmodium falciparum. The assay is described as follows: Antiplasmodial activity against chloroquine-resistant Plasmodium falciparum W2 assessed as inhibition of parasite growth after 72 hrs by parasite lactate dehydrogenase assay. It is filed as functional, organism-based. Conditions: W2, 72 h.
In assay [8] the test system is Plasmodium falciparum. The assay can be described thus: Resistance index, ratio of IC50 for chloroquine-resistant Plasmodium falciparum W2 to IC50 for chloroquine-sensitive Plasmodium falciparum D10. It is filed as functional.
A short description of assay [9]: Selectivity index, ratio of IC50 for HMEC1 to IC50 for chloroquine-resistant Plasmodium falciparum W2.

As for `C[C@@H]1[C@H](O)[C@@H](C)/C=C/C=C/C=C/C=C/C=C/C=C/C=C/[C@H](O[C@@H]2O[C@H](C)[C@@H](O)[C@H](N)[C@@H]2O)C[C@@H]2O[C@](O)(C[C@@H](O)C[C@@H](O)[C@H](O)CC[C@@H](O)C[C@@H](O)CC(=O)O[C@H]1C)C[C@H](O)[C@H]2C(=O)O` [AMPHOTERICIN B], the 50% inhibitory concentration (IC50) with Leishmania infantum is 0.08 µM; with Leishmania tropica it was 0.09 µM; in the assay on Leishmania braziliensis it was 0.09 µM; in [4] it was 25.7 µM. Besides, the Ratio IC50 in assay [1] came out at 321; in assay [2] it was 286; in [3], 286.
For the molecule `Cl.c1ccc(Nc2cc3nc4ccccc4n(-c4ccccc4)c-3c/c2=N/CCCCCCC23CCCCN2CCCC3)cc1`, the IC50 in the assay with Leishmania infantum was 0.23 µM; with Leishmania tropica it was 0.12 µM; with Leishmania braziliensis it was 0.14 µM; with Plasmodium falciparum [5], 0.17 µM; with Plasmodium falciparum [7], 0.21 µM; in assay [4], 1.24 µM. For the same molecule, the Ratio IC50 was 5.4 in assay [1]; 10.3 in assay [2]; 8.9 in assay [3]; 7.3 in assay [6]; 1.2 with Plasmodium falciparum [8]; 5.9 in [9].
Take `Cl.c1ccc(Nc2cc3nc4ccccc4n(-c4ccccc4)c-3c/c2=N/CCCCC23CCCCN2CCCC3)cc1`: the IC50 in the assay with Leishmania infantum stood at 0.37 µM; in the assay on Leishmania tropica it was 0.22 µM; with Leishmania braziliensis it was 0.17 µM; with Plasmodium falciparum [5], 0.21 µM; in the assay on Plasmodium falciparum [7] it was 0.27 µM; in assay [4] it was 1.23 µM. Also, the Ratio IC50 was found to be 3.3 in [1]; 5.6 in [2]; 7.2 in assay [3]; 5.9 in [6]; 1.3 in the assay on Plasmodium falciparum [8]; 4.5 in [9].

The term IC50 denotes the point on the concentration scale where inhibition reaches its midpoint.
